Assay [1] concerns the target T1, human GLP-1R (Homo sapiens (Human), UniProt P43220). The assay can be described thus: GLP-1 assay with GLP1 endogenous agonist (calcium mobilization, EC20 GLP-1 peptide 7-36 amide). The class given is cell-based. The conditions noted are these: calcium flux; for Emax at 30 µM: 30 μM compound, EC20 of GLP-1 7-36 amide; for EC50: potentiation of EC20 GLP-1 7-36 amide. An excerpt: A. GLP-1 Assay with GLP1 Endogenous Agonist
(§1) To assess the effects of test compounds on GLP-1 or glucagon potency and efficacy, a high-throughput calcium mobilization assay was used essentially as previously described (Morris L C, Days E L, Turney M, Mi D, Lindsley C W, Weaver C D, Niswender K D, A Duplexed High-Throughput Screen to Identify Allosteric Modulators of the Glucagon-Like Peptide 1 and Glucagon Receptors. J. Biomol. Screen. 2014 Feb. 13, 19(6):847-858). Briefly, human GLP-1R or Glucagon Receptor 9-3-H cells over-expressing a promiscuous G-protein (Millipore, Billerica, Mass.) were plated at 15,000 cells/well in black-walled 384-well plates (Greiner Bio-one, Monroe, N.C.) in Dulbecco's Modified Eagles Medium (DMEM) with 10% FCS, 4.0 mM L-glutamine, non-essential amino acids (NEAAs), and 10.0 mM HEPES without antibiotics. After overnight attachment, cells were washed twice with assay buffer (HBSS supplemented with 20 mM HEPES and 1.0 mM probenecid) using an ELx405CW cell washer (Bio-Tek, Winooski, Vt.) and then loaded with the calcium sensitive dye fluo-4 AM (Invitrogen, Grand Island, N.Y.) at a final concentration of 2.0 μM in assay buffer. After a 45-minute incubation at room temperature, the dye was removed by washing, leaving 20 μL of assay buffer. Next, the cell plate was introduced alongside a 384-well compound plate containing 0.1% final DMSO control wells and 11-point concentration response curves of putative GLP-1 PAMs created using a non-pipet based liquid transfer instrument, ECH0555 (Labcyte, Sunnyvale, Calif.). After a 20 μL compound addition to the appropriate wells, kinetic fluorescent measurements were collected for 2 minutes using an FDSS6000 (Hamamatsu, Bridgewater, N.J.) with 488 nm excitation and 480/540 emission filters. After 2 minutes, 10 μL of an EC20 concentration of GLP-1 peptide 7-36 amide (Phoenix Pharmaceuticals, Burlingame, Calif.), Glucagon (Phoenix Pharmaceuticals, Burlingame, Calif.) Exendin-4 (Tocris Bioscience, Bristol, UK), or Liraglutide (Victoza™, Novo-Nordisk, Denmark) was added and fluorescence was monitored for an additional 2 minutes to observe potentiation of the calcium flux signal. […] Recombinant peptides were reconstituted into assay buffer supplemented with 0.1% fatty acid free BSA (Sigma #A6003) and diluted into borosilicate glass tubes to maximize peptide recovery (Goebel-Stengel M, Stengel A, Tache Y, Reeve J R Jr., The importance of using the optimal plasticware and glassware in studies involving peptides. Anal. Biochem. 2011 Jul. 1, 414(1):38-46).
(§2) Data is from a single experiment unless otherwise noted. Data that is an average of two experiments is noted as “n=2” while data that is an average of three or more experiments is presented as the average plus or minus the standard error of the mean.

Assay [2] addresses T1, human GLP-1R. The assay can be described thus: GLP-1 assay with EX-4 synthetic agonist (calcium mobilization, EC20 EX-4). The conditions noted are these: calcium flux; for Emax at 30 µM: 30 μM compound, EC20 of EX-4; for EC50: potentiation of EC20 EX-4, read-out: GLP1 EC50 (Ex-4 synthetic agonist). It is filed as cell-based.
Source text: B. GLP-1 Assay with EX-4 Synthetic Agonist
as §1, with “L-glutamine, 1×” for “L-glutamine,”, “EL×405CW” for “ELx405CW”, “EX-4” for “GLP-1 peptide 7-36 amide”, “Taché” for “Tache”
as §2
In general terms: Calcium flux is commonly read through the fluorescence of an indicator in the cells.

Molecules are shown by their SMILES.

By Emax is commonly meant the size of the effect at its maximum, as opposed to the concentration needed. Broadly, the EC50 is the midpoint of the concentration-response curve.

T1 sequence (P43220 24-463): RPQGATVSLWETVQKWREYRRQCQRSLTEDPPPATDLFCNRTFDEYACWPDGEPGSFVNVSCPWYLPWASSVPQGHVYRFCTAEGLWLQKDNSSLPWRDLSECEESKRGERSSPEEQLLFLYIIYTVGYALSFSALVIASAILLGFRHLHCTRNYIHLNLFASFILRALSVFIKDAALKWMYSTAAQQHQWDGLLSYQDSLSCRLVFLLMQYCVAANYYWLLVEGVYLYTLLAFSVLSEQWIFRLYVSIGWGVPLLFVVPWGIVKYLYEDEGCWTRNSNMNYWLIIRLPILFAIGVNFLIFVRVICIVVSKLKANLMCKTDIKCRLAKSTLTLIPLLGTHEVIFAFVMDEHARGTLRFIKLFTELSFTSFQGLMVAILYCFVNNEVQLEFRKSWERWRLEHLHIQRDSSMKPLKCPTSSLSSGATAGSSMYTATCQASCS

For `Cc1c2n(c3ccccc13)C(C(=O)NC[C@@H]1CCCN1C(C)C)CN(C1CCCC1)C2=O` (stereo partly drawn) [Compound 3, 2-cyclopentyl-N-(((S)-1-isopropylpyrrolidin-2-yl)methyl)-10-methyl-1-oxo-1,2,3,4-tetrahydropyrazino[1,2-a]indole-4-carboxamide], on human GLP-1R [1], the Emax at 30 µM was 50% and the EC50 was 5.7 µM. Also, at human GLP-1R [2], the maximum response (Emax) at 30 µM is 55% and the EC50 turned out to be 11 µM.
The like results for `Cc1c2ccccc2n2c(C(=O)NC[C@@H]3CCCN3C(C)C)cn([C@H]3CCOC3)c(=O)c12` [Compound 4, N-(((S)-1-isopropylpyrrolidin-2-yl)methyl)-10-methyl-1-oxo-2-((S)-tetrahydrofuran-3-yl)-1,2-dihydropyrazino[1,2-a]indole-4-carboxamide] were, in that order, 52%, 2.4 µM, 50% and 2.9 µM.
On the same counts, the results for `Cc1c2ccccc2n2c(C(=O)NC[C@H]3CCCN3C(C)C)cn([C@H]3CCOC3)c(=O)c12` [Compound 5, N-(((R)-1-isopropylpyrrolidin-2-yl)methyl)-10-methyl-1-oxo-2-((S)-tetrahydrofuran-3-yl)-1,2-dihydropyrazino[1,2-a]indole-4-carboxamide] are 56%, 4.2 µM, 55% and 5.9 µM.
With `Cc1c2cc(F)ccc2n2c(C(=O)NC[C@@H]3CCCN3C(C)C)cn(C3CCCC3)c(=O)c12` [Compound 6, (S)-2-cyclopentyl-8-fluoro-N-((1-isopropylpyrrolidin-2-yl)methyl)-10-methyl-1-oxo-1,2-dihydropyrazino[1,2-a]indole-4-carboxamide], the Emax at 30 µM on human GLP-1R [1] worked out at 60%; on human GLP-1R [2] it was 54%. Further, the EC50 was 4.4 µM on human GLP-1R [1] and 6.1 µM at human GLP-1R [2].
Turning to `Cc1c2cc(F)ccc2n2c(C(=O)NC[C@H]3CCCN3C(C)C)cn(C3CCCC3)c(=O)c12` [Compound 7, (R)-2-cyclopentyl-8-fluoro-N-((1-isopropylpyrrolidin-2-yl)methyl)-10-methyl-1-oxo-1,2-dihydropyrazino[1,2-a]indole-4-carboxamide], the EC50 on human GLP-1R [1] and at human GLP-1R [2] was above 30 µM in each case.
`Cc1c2ccccc2n2c(C(=O)NC[C@@H]3CCCN3C(C)C)cn(-c3ccccc3)c(=O)c12` [Compound 14, (S)-N-((1-isopropylpyrrolidin-2-yl)methyl)-10-methyl-1-oxo-2-phenyl-1,2-dihydropyrazino[1,2-a]indole-4-carboxamide]: at human GLP-1R [1], the maximal effect (Emax) at 30 µM came to 45% and the EC50 amounted to 13 µM.
On to `Cc1c2ccccc2n2c(C(=O)NC[C@H]3CCCN3C(C)C)cn(-c3ccccc3)c(=O)c12` [Compound 15, (R)-N-((1-isopropylpyrrolidin-2-yl)methyl)-10-methyl-1-oxo-2-phenyl-1,2-dihydropyrazino[1,2-a]indole-4-carboxamide], for which the EC50 on human GLP-1R [1] is above 30 µM.
For the compound `CC(C)N1CCC[C@H]1CNC(=O)c1cn(C2CCCC2)c(=O)c2c(C#N)c3ccccc3n12` [Compound 16, (S)-10-cyano-2-cyclopentyl-N-((1-isopropylpyrrolidin-2-yl)methyl)-1-oxo-1,2-dihydropyrazino[1,2-a]indole-4-carboxamide], on human GLP-1R [1], the maximal effect (Emax) at 30 µM is 43% and the EC50 came out at 1.9 µM.
The like results for `C=Cc1c2ccccc2n2c(C(=O)NC[C@@H]3CCCN3C(C)C)cn(C3CCCC3)c(=O)c12` [Compound 17, (S)-2-cyclopentyl-N-((1-isopropylpyrrolidin-2-yl)methyl)-1-oxo-10-vinyl-1,2-dihydro-pyrazino[1,2-a]indole-4-carboxamide] were, in that order, 37% and 9.6 µM.
For `Cc1c2ccccc2n2c(C(=O)NC[C@@H]3CCCN3C(C)C)cn(-c3cnn(C)c3)c(=O)c12` [Compound 18, (S)-N-((1-isopropylpyrrolidin-2-yl)methyl)-10-methyl-2-(1-methyl-1H-pyrazol-4-yl)-1-oxo-1,2-dihydropyrazino[1,2-a]indole-4-carboxamide], at human GLP-1R [1], the Emax at 30 µM came out at 34% and the EC50 amounted to 6.7 µM.
Consider `Cc1c2ccccc2n2c(C(=O)NC[C@H]3CCCN3C(C)C)cn(-c3cnn(C)c3)c(=O)c12` [Compound 19, (R)-N-((1-isopropylpyrrolidin-2-yl)methyl)-10-methyl-2-(1-methyl-1H-pyrazol-4-yl)-1-oxo-1,2-dihydropyrazino[1,2-a]indole-4-carboxamide], for which, on human GLP-1R [1], the EC50 is above 30 µM.
Turning to `Cc1c2ccccc2n2c(C(=O)NC[C@@H]3CCCN3C(C)C)cn(-c3cccnc3)c(=O)c12` [Compound 20, (S)-N-((1-isopropylpyrrolidin-2-yl)methyl)-10-methyl-1-oxo-2-(pyridin-3-yl)-1,2-dihydropyrazino[1,2-a]indole-4-carboxamide], on human GLP-1R [1], the Emax at 30 µM stood at 36% and the EC50 is 5.2 µM.
Turning to `Cc1c2ccccc2n2c(C(=O)NC[C@H]3CCCN3C(C)C)cn(-c3cccnc3)c(=O)c12` [Compound 21, (R)-N-((1-isopropylpyrrolidin-2-yl)methyl)-10-methyl-1-oxo-2-(pyridin-3-yl)-1,2-dihydropyrazino[1,2-a]indole-4-carboxamide], the EC50 on human GLP-1R [1] is above 30 µM.
Same read-out and setting: the value for `Cc1c2ccccc2n2c(C(=O)NCC3CCN3)cn(C3CCCC3)c(=O)c12` (stereo not drawn) [Compound 22, N-(azetidin-2-ylmethyl)-2-cyclopentyl-10-methyl-1-oxo-1,2-dihydropyrazino[1,2-a]indole-4-carboxamide] was above 30 µM; that for `Cc1c2ccccc2n2c(CO)cn(C3CCCC3)c(=O)c12` [Compound 23, 2-cyclopentyl-4-(hydroxymethyl)-10-methylpyrazino[1,2-a]indol-1(2H)-one] was above 30 µM.
On to `Cc1c2ccccc2n2c(C(=O)NCC3CCN3C(C)C)cn(C3CCCC3)c(=O)c12` (stereo not drawn) [Compound 24, 2-cyclopentyl-N-((1-isopropylazetidin-2-yl)methyl)-10-methyl-1-oxo-1,2-dihydropyrazino[1,2-a]indole-4-carboxamide], for which, at human GLP-1R [1], the Emax at 30 µM came to 51% and the EC50 amounted to 12 µM.
For `Cc1c2ccccc2n2c(C(=O)O)cn(C3CCCC3)c(=O)c12` [Compound I, 2-Cyclopentyl-10-methyl-1-oxo-1,2-dihydropyrazino[1,2-a]indole-4-carboxylic acid], at human GLP-1R [1], the EC50 was above 30 µM.

These data come from patent US10487087B2, “Positive allosteric modulators of the GLP-1 receptor” (Vanderbilt University, priority 2015, dated 2019).
